Each block holds one molecule with its values, some of them ahead of it.
How the values were obtained:
[1] = target: T1, Proto-oncogene tyrosine-protein kinase Src (Homo sapiens, UniProt P12931); experiment: Inhibition of human cSrc
IKr channel [2] = target: T2, IKr channel (Oryctolagus cuniculus, UniProt Q28705); experiment: Inhibition of Ikr channel in rabbit ventricular myocytes at 10 uM; assay type: cell-based, Ventricular myocyte
[3] = target: T1, Proto-oncogene tyrosine-protein kinase Src; experiment: Inhibition of human cSrc in COS7 cells by ELISA; assay type: cell-based, COS-7
IKr channel [4] = target: T2, IKr channel; experiment: Inhibition of Ikr channel in rabbit ventricular myocytes at 30 uM
[5] = Drug level in Sprague-Dawley rat plasma at 3 mg/kg, iv after 1 hr; assay type: ADME, organism-based; set-up: dose 3 mg/kg, route intravenous
[6] = Drug level in Sprague-Dawley rat brain at 3 mg/kg, iv after 1 hr; assay type: ADME, organism-based; set-up: dose 3 mg/kg, route intravenous; conditions: read-out: Drug uptake
[7] = Ratio of drug level in brain to plasma in Sprague-Dawley rat at 3 mg/kg, iv after 1 hr; assay type: ADME, organism-based; set-up: dose 3 mg/kg, route intravenous; conditions: read-out: BPR
[8] = target: Vascular endothelial growth factor receptor 2 (Homo sapiens, UniProt P35968); experiment: Inhibition of KDR
Chain of Vascular endothelial growth factor receptor 2 (P35968 whole entry): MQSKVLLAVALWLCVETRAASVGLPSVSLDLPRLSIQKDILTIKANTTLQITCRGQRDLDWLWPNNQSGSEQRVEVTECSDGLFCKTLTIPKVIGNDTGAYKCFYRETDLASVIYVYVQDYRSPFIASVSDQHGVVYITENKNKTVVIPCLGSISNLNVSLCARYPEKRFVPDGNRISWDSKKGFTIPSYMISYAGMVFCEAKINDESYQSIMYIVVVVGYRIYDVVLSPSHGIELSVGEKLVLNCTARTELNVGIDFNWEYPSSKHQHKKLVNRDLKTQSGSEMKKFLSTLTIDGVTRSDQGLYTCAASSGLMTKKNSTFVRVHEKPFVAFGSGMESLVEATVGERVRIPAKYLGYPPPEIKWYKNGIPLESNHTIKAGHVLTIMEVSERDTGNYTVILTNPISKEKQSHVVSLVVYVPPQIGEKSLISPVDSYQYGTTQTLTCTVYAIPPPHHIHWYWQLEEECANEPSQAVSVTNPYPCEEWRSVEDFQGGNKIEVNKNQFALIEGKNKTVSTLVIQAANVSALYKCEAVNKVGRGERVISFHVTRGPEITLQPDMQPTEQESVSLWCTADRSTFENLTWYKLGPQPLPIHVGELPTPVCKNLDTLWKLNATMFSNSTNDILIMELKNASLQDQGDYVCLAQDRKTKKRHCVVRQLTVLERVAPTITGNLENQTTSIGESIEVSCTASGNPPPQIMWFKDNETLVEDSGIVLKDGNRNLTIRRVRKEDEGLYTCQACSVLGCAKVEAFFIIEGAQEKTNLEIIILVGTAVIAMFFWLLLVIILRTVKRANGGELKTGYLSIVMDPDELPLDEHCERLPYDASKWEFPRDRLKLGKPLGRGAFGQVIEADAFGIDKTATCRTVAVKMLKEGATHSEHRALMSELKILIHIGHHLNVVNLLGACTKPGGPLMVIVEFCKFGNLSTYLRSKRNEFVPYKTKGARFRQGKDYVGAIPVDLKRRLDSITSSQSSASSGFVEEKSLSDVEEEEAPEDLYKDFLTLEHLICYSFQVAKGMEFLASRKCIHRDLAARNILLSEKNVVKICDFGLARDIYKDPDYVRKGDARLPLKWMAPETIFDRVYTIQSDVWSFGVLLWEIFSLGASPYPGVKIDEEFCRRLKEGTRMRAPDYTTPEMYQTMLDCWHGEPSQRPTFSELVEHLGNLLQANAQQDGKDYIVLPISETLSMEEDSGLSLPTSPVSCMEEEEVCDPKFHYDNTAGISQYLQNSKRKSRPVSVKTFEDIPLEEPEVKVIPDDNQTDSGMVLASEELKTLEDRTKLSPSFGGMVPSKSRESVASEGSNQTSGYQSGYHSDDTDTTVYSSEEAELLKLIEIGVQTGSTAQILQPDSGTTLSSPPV

[9] = AUC (0 to infinity) in Sprague-Dawley rat middle cerebral artery occlusion model at 3 mg/kg, iv; assay type: ADME, organism-based; set-up: time infinity, dose 3 mg/kg, route intravenous; conditions: in vivo
[10] = Half life in Sprague-Dawley rat middle cerebral artery occlusion model at 3 mg/kg, iv; assay type: ADME, organism-based; set-up: dose 3 mg/kg, route intravenous; conditions: in vivo
[11] = Clearance in Sprague-Dawley rat middle cerebral artery occlusion model at 3 mg/kg, iv; assay type: ADME, organism-based; set-up: dose 3 mg/kg, route intravenous; conditions: in vivo
[12] = Volume of distribution at steady state in Sprague-Dawley rat middle cerebral artery occlusion model at 3 mg/kg, iv; assay type: ADME, organism-based; set-up: dose 3 mg/kg, route intravenous; conditions: in vivo, read-out: Vdss
[13] = target: T3, Tyrosine-protein kinase ZAP-70 (Homo sapiens, UniProt P43403); experiment: Inhibition of ZAP
T3 sequence (P43403 whole entry): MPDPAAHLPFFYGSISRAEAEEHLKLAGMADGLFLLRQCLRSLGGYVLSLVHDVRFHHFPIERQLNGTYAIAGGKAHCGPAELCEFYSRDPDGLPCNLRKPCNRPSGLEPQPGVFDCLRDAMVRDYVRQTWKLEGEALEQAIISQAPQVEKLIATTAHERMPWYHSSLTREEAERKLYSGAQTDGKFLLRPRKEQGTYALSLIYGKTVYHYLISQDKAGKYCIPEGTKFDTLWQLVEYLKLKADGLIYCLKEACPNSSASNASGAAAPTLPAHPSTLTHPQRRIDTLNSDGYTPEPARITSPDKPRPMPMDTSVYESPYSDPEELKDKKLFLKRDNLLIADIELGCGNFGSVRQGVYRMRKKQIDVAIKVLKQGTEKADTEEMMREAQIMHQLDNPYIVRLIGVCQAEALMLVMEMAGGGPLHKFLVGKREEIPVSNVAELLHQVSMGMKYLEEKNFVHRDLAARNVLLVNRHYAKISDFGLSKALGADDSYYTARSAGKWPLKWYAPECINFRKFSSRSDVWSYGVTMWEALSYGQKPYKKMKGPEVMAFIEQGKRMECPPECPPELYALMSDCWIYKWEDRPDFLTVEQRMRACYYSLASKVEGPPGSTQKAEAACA

[14] = target: Tyrosine-protein kinase SYK (Homo sapiens, UniProt P43405); experiment: Inhibition of Syk
[15] = target: Protein kinase C beta type (Homo sapiens, UniProt P05771); experiment: Inhibition of PKCbeta
Chain of Protein kinase C beta type (P05771 whole entry): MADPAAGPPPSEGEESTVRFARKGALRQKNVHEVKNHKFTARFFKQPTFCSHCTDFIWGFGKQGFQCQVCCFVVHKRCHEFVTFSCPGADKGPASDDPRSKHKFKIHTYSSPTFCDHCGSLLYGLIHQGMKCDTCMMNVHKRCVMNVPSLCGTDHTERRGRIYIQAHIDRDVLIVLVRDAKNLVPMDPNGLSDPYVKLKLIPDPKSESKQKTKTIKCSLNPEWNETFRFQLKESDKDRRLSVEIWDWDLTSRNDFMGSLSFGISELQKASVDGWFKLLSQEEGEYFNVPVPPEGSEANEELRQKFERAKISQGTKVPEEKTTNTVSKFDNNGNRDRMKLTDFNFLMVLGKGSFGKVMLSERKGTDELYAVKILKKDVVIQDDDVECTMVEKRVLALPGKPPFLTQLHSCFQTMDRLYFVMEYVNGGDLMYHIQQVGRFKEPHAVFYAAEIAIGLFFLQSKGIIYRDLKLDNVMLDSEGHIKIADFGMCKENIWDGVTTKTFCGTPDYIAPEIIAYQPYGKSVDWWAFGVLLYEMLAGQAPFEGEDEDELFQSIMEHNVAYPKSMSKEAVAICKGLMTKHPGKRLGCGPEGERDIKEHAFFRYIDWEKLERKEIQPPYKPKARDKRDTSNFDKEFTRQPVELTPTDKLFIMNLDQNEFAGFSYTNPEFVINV

[16] = target: Epidermal growth factor receptor (Homo sapiens, UniProt P00533)
Chain of Epidermal growth factor receptor (P00533 whole entry): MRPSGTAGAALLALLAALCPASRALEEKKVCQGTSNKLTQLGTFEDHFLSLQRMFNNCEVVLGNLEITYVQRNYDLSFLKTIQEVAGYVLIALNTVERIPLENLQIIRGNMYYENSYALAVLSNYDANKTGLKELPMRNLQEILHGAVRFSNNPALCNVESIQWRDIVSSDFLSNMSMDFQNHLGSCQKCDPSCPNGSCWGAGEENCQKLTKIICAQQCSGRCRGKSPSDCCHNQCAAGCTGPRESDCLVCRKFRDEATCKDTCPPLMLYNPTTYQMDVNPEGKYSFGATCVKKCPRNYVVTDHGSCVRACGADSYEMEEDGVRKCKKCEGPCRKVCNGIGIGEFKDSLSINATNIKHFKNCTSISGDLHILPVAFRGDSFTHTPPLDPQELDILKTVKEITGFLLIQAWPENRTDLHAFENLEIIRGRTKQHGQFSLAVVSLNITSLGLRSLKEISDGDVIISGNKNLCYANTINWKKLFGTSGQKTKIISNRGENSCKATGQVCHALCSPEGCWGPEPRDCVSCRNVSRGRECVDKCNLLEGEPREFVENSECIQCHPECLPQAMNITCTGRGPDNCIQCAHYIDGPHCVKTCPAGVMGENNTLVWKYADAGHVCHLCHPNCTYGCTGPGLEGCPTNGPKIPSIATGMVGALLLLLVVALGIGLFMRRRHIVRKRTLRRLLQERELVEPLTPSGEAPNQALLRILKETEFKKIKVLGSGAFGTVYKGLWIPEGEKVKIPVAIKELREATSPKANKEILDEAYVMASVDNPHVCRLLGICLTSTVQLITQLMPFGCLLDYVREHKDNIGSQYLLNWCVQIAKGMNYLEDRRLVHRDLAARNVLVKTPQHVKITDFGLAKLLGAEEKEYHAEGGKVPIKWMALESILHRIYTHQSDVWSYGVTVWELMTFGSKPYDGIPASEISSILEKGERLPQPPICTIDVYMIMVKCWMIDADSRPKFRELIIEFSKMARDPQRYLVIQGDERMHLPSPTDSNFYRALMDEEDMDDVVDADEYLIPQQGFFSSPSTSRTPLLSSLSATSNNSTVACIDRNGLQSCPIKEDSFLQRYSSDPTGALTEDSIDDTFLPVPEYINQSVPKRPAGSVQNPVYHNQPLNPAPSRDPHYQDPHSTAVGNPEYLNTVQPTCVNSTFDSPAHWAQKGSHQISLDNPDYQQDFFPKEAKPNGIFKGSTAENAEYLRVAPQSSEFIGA

[17] = target: Tyrosine-protein kinase Lck (Homo sapiens, UniProt P06239)
Chain of Tyrosine-protein kinase Lck (P06239 whole entry): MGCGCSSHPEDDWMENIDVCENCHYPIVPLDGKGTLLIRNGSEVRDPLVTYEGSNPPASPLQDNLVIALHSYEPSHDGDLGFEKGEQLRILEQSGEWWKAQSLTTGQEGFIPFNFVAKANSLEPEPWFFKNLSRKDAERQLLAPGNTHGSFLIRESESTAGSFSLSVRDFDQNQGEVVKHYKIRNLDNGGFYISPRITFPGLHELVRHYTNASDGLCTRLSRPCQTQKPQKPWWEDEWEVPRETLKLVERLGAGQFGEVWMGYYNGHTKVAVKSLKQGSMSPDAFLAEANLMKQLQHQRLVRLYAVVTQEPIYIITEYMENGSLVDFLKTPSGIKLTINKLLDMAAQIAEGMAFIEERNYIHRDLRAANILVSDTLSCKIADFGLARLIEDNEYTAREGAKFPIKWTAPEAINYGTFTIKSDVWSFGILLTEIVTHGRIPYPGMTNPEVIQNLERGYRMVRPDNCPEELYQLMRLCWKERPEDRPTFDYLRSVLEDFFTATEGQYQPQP

T2 sequence (Q28705 whole entry): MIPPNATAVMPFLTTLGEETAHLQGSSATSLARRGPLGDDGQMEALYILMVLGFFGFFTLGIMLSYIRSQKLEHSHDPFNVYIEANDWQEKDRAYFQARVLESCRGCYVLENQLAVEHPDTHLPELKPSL
T1 sequence (P12931 2-536 limits assumed): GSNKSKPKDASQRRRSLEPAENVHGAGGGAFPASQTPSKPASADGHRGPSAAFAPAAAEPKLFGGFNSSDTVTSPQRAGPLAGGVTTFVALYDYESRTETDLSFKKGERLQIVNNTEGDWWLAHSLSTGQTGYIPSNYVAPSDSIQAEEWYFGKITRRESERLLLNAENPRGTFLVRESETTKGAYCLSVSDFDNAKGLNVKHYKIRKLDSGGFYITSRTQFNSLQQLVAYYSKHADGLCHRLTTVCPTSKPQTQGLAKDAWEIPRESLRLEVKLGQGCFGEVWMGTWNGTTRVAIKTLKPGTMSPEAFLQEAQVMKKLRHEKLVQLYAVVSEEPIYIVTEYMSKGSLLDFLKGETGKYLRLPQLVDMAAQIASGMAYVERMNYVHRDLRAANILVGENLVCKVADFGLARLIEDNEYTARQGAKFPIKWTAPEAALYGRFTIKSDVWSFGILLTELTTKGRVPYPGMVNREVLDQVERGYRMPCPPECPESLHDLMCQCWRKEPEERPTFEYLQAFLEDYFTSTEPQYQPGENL

Compound: COc1cc(Nc2nn3c(NC[C@@H](C)N)cc(C)nc3c2C(N)=O)cc(OC)c1
- IC50 [1]: 408 nM
- inhibition at 10 µM (IKr channel [2]): 47.9%

Compound: COc1cc(Nc2nn3c(NCC(C)(C)N)cc(C)nc3c2C(N)=O)cc(OC)c1
- IC50 [1]: 175 nM
- IC50 [3]: 900 nM
- inhibition at 10 µM (IKr channel [2]): 90.7%

Compound: COc1cc(Nc2nn3c(N[C@H](CO)Cc4c[nH]c5ccccc45)cc(C4CC4)nc3c2C(N)=O)cc(OC)c1
- IC50 [1]: 5 nM
- IC50 [3]: 500 nM
- inhibition at 30 µM (IKr channel [4]): 5.4%
- concentration at 1 h [5]: 80 ng/mL
- concentration at 1 h [6]: 89 ng/g
- Kp at 1 h [7]: 1.1

Compound: COc1cc(Nc2nn3c(N4CCC[C@@H]4CO)cc(C4CC4)nc3c2C(N)=O)cc(OC)c1
- IC50 [1]: 9 nM
- inhibition at 30 µM (IKr channel [4]): 14.2%

Compound: COc1cc(Nc2nn3c(N[C@@H](CO)Cc4ccccc4)cc(C4CC4)nc3c2C(N)=O)cc(OC)c1
- IC50 [1]: 12 nM

Compound: COc1cc(Nc2nn3c(N[C@H](CO)Cc4cccnc4)cc(C4CC4)nc3c2C(N)=O)cc(OC)c1
- IC50 [1]: 5 nM
- IC50 [3]: 100 nM
- concentration at 1 h [5]: 81 ng/mL

Compound: COc1cc(Nc2nn3c(N4CCC[C@H]4CO)cc(C4CC4)nc3c2C(N)=O)cc(OC)c1
- IC50 [1]: 25 nM

Compound: COc1cc(Nc2nn3c(N[C@H](CO)Cc4ccccc4)cc(C4CC4)nc3c2C(N)=O)cc(OC)c1
- IC50 [8]: > 10000 nM
- IC50 [1]: 3 nM
- IC50 [3]: 100 nM
- inhibition at 30 µM (IKr channel [4]): 23.4%
- concentration at 1 h [5]: 273 ng/mL
- concentration at 1 h [6]: 256 ng/g
- Kp at 1 h [7]: 0.9
- AUC(0-inf) [9]: 1990 ng·h/mL
- half-life [10]: 22 min
- clearance [11]: 25 mL/min/kg
- Vd [12]: 0.53 L/kg
- IC50 [13]: > 10000 nM
- IC50 [14]: > 10000 nM
- IC50 [15]: > 10000 nM
- IC50 [16]: 2400 nM
- IC50 [17]: 7 nM

The next lines start with results.

- IC50 [1]: 6690 nM
Compound: COc1cc(Nc2nn3c(NC[C@@H](C)O)cc(C)nc3c2C(N)=O)cc(OC)c1

- IC50 [1]: 68 nM
Compound: COc1cc(Nc2nn3c(N[C@@H](CO)C(C)C)cc(-c4ccccc4)nc3c2C(N)=O)cc(OC)c1
- inhibition at 30 µM (IKr channel [4]): 12.4%

- IC50 [1]: 9200 nM
Compound: COc1cc(Nc2nn3c(NC[C@H](C)O)cc(C)nc3c2C(N)=O)cc(OC)c1

- IC50 [1]: 2990 nM
Compound: COc1cc(Nc2nn3c(NC[C@H](C)N)cc(C)nc3c2C(N)=O)cc(OC)c1
- inhibition at 10 µM (IKr channel [2]): 99.1%

- IC50 [1]: 41 nM
Compound: COc1cc(Nc2nn3c(N[C@@H](CO)C(C)C)cc(C(C)C)nc3c2C(N)=O)cc(OC)c1
- inhibition at 30 µM (IKr channel [4]): 14.6%

- IC50 [1]: 1210 nM
Compound: COc1cc(Nc2nn3c(N[C@H](CO)C(C)C)cc(C)nc3c2C(N)=O)cc(OC)c1

- IC50 [1]: 3480 nM
Compound: COc1cc(Nc2nn3c(N[C@@H](C)CO)cc(C)nc3c2C(N)=O)cc(OC)c1

- IC50 [1]: 432 nM
Compound: COc1cc(Nc2nn3c(N[C@@H](CO)C(C)C)cc(C)nc3c2C(N)=O)cc(OC)c1

- IC50 [1]: 8 nM
- IC50 [3]: 100 nM
- concentration at 1 h [5]: 346 ng/mL
- concentration at 1 h [6]: 126 ng/g
- Kp at 1 h [7]: 0.4
Compound: COc1cc(Nc2nn3c(N[C@@H](CO)C(C)C)cc(C4CC4)nc3c2C(N)=O)cc(OC)c1
